Legend:
Cannabinoid receptor 1 = Cannabinoid receptor 1 (Mus musculus, UniProt P47746); experiment: Displacement of [3H]-CP-55940 from cannabinoid CB1 receptor in CD1 mouse brain membranes after 1 hr by liquid scintillation counting; format: cell membranes, Membrane
Mus musculus [1] = organism: Mus musculus; experiment: Selectivity ratio of Ki for cannabinoid CB1 receptor in CD1 mouse brain membranes to Ki for cannabinoid CB2 receptor in CD1 mouse spleen membranes; format: cell membranes
Cannabinoid receptor 2 = Cannabinoid receptor 2 (Mus musculus, UniProt P47936); experiment: Displacement of [3H]-CP-55940 from cannabinoid CB2 receptor in CD1 mouse spleen membranes after 1 hr by liquid scintillation counting; format: cell membranes, Membrane
[2] = biological target: Delta-type opioid receptor (Mus musculus, UniProt P32300); experiment: Displacement of [3H]DPDPE from delta opioid receptor in CD1 mouse brain membranes after 1 hr by liquid scintillation counting; format: cell membranes, Membrane
Mu-type opioid receptor = Mu-type opioid receptor (Mus musculus, UniProt P42866); experiment: Displacement of [3H]DAMGO from mu opioid receptor in CD1 mouse brain membranes after 1 hr by liquid scintillation counting; format: cell membranes, Membrane
Mus musculus [3] = organism: Mus musculus; experiment: Selectivity ratio of Ki for delta opioid receptor in CD1 mouse brain membranes to Ki for mu opioid receptor in CD1 mouse brain membranes; format: cell membranes

| Structure (SMILES) | Ki (Cannabinoid receptor 1) | Ratio Ki (Mus musculus [1]) | Ki (Cannabinoid receptor 2) | Ki [2] | Ki (Mu-type opioid receptor) | Ratio Ki (Mus musculus [3]) |
| --- | --- | --- | --- | --- | --- | --- |
| COc1cc([C@@H]2Oc3c(OC)cc(/C=C/C=O)cc3[C@H]2COC(=O)CC(C)C)ccc1O | 2.7 µM | 0.64 | 4.2 µM | 3.8 µM | 9 µM | 0.42 |
| CCCCC/C=C\CC/C=C/C=C/C(=O)N1CCCCC1 | 0.8 µM | 5 | 0.16 µM | 3.8 µM | 7.4 µM | 0.51 |
| O=C(/C=C/C=C/C=C/c1cccs1)N1C=CCCC1 | > 50 µM |  | 13.5 µM | 11.5 µM | 29 µM | 0.4 |
| CCCCCCCCC/C=C/C=C/C(=O)N1CCCCC1 | 6.7 µM | 0.28 | 24 µM | 6.5 µM | 5.75 µM | 1.13 |
| CC(C)CC(=O)OC/C=C\CCNC(=O)/C=C/C=C/C=C/c1cccs1 | 5.6 µM | 0.55 | 10.2 µM | 11 µM | 41.5 µM | 0.27 |
| O=C(/C=C/C=C/C=C/c1cccs1)N1CCCCC1 | 4.1 µM | 3.3 | 1.24 µM | 8 µM | 12.8 µM | 0.63 |
| CCCCCCC/C=C/C=C/C(=O)NCC(C)C | 2.6 µM | 2.89 | 0.9 µM | 43 µM | 8.2 µM | 5.24 |
| CCCCC/C=C\CC/C=C/C=C/C(=O)NCC(C)C | 1.2 µM | 2.18 | 0.55 µM | 7.7 µM | 7.5 µM | 1.03 |
| CC(C)CCNC(=O)/C=C/C=C/C=C/c1cccs1 | 2.2 µM | 0.44 | 5 µM | 26.5 µM | 8.1 µM | 3.27 |
| CCCCCCCCC/C=C/C=C/C(=O)NCC(C)C | 1.4 µM | 1.2 | 1.17 µM | 22.5 µM | 51 µM | 0.44 |
| CC(C)CNC(=O)/C=C/C=C/C=C/c1cccs1 | 8.8 µM | 1.07 | 8.25 µM | 25.5 µM | 52 µM | 0.49 |
| C=CC1OC1/C=C/C#CC#CC#CC (centres undefined) | > 50 µM |  | > 50 µM | > 50 µM | > 50 µM |  |

From ChEMBL document CHEMBL2440099, “N-Alkyl dien- and trienamides from the roots of Otanthus maritimus with binding affinity for opioid and cannabinoid receptors” (Bioorg Med Chem, 2013)
